Assays:
[1] = system: BT474, a human breast cancer cell line; test: Proliferation test of anchorage-independent cells; format: cell-based; settings: BT-474, 168 h, BT474, soft agarose, 7 days, CellTiter-Blue
Method: (§1) 2. Proliferation Test of Anchorage-Independent Cells
(§2) NCI-H1975, a human non-small cell lung cancer cell, and BT474, a human breast cancer cell line, were incubated with RPIM-1640 or DMEM medium supplemented with 10% fetal bovine serum (FBS) in a cell incubator (37° C., 5% CO2). In the test of the compounds, the coated substrate with a concentration of 0.6% was used. The cells were screened with 0.3% low melting point agarose, then plated into 96-well plates with a density of 10,000 cells per well (100 μL). Starting from 10 mM, the compounds were diluted in a gradient of 3 times. For each concentration, 2 μL of the solution was taken and added into 98 μL of medium, then 5.3 μL of the mixture was added into the cell culture medium (where the final concentration of DMSO was 0.1%, v/v). After one week (7 days) of treatment, 20 μL of CellTiter-Blue®reagent (Promega) was added, incubated at 37° C. for 4 h. The fluorescent signal was read on Envison (Perkin Elmer).

[2] = system: NCI-H1975, a human non-small cell lung cancer cell; test: Proliferation test of anchorage-independent cells; format: cell-based; settings: 168 h, NCI-H1975, soft agarose, 7 days, CellTiter-Blue
Method: as §1, §2

HER2 = HER2 (Homo sapiens (Human), UniProt P04626); test: In vitro enzymology test (HTRF kinase activity); format: biochemical; settings: read-out: Enzyme activity (IC50 nM) HER2
Source text: 1. The Method for In Vitro Enzymology Test
EGFR, EGFR (T790M, L858R), HER2 kinase were expressed and purified through an insect cell expression system by the Department of Biology, Centaurus Biopharma, Beijing, or purchased from commercially available products.
The platform for testing the kinase activity of EGFR, EGFR (T790M, L858R) and HER2 was established based on the homogeneous time-resolved fluorescence (HTRF) method provided by Cisbio Bioassays, and the activity of the compounds was determined with the platform. […]. And 2.5 μL of the mixture was taken, added into 384-well plates (OptiPlate-384, PerkinElmer), then 2.5 μL of kinase was added, mixed thoroughly by centrifuge. Then 5 μL of ATP and TK Substrate-biotin were added to initiate the reaction. The 384-well plates were incubated at 23° C. in an incubator for a certain period of time, then 5 μL of Eu3^+-Cryptate labeled TK-Antibody and 5 μL of streptavidin-XL665 were added to stop the reaction. After 1 h incubation in an incubator, the fluorescence value was read on Envision (PerkinElmer). The IC50 value of the compound was calculated with the software GraphPad Prism 5.0.

[3] = Pharmacokinetics test on rats; format: in vivo; settings: rat, po; male rats, gavage, single dose 5 mg/kg, plasma
Method: Pharmacokinetics Test on Rats
In this study, 6 healthy adult male rats (from Beijing Vital River Laboratory Animal Technology Co., Ltd.) were used. The animals were fast overnight before the experiment. The fasting period was from 12 h prior to the administration, till 4 h after the administration. Drug administration was performed through gavage at a single dose of 5 mg/kg. The compounds to be tested were dissolved in 20% aqueous solution of sulfobutyl-β-cyclodextrin (SBE). Blood samples were collected 0.25, 0.5, 1, 2, 4, 6, 8 and 24 hours after drug administration. During blood sampling, the animals were lightly anesthetized with isoflurane, and approximately 0.5 mL whole blood was collected from retro-orbital venous sinus, placed into tubes that contain heparin as anticoagulant. The samples were centrifuged at 4° C., 4000 rpm for 5 min. The plasma was transferred into centrifuge tubes, and stored at −80° C. till being analyzed. The drug concentration in the plasma was quantitatively analyzed with liquid chromatography-tandem mass spectrometry (LC-MS/MS). From the analysis result of the samples, the pharmacokinetic parameter of the compounds was calculated with WinNonlin (WinNonlin Professional, version […]).

Chain of HER2 (P04626 23-1255): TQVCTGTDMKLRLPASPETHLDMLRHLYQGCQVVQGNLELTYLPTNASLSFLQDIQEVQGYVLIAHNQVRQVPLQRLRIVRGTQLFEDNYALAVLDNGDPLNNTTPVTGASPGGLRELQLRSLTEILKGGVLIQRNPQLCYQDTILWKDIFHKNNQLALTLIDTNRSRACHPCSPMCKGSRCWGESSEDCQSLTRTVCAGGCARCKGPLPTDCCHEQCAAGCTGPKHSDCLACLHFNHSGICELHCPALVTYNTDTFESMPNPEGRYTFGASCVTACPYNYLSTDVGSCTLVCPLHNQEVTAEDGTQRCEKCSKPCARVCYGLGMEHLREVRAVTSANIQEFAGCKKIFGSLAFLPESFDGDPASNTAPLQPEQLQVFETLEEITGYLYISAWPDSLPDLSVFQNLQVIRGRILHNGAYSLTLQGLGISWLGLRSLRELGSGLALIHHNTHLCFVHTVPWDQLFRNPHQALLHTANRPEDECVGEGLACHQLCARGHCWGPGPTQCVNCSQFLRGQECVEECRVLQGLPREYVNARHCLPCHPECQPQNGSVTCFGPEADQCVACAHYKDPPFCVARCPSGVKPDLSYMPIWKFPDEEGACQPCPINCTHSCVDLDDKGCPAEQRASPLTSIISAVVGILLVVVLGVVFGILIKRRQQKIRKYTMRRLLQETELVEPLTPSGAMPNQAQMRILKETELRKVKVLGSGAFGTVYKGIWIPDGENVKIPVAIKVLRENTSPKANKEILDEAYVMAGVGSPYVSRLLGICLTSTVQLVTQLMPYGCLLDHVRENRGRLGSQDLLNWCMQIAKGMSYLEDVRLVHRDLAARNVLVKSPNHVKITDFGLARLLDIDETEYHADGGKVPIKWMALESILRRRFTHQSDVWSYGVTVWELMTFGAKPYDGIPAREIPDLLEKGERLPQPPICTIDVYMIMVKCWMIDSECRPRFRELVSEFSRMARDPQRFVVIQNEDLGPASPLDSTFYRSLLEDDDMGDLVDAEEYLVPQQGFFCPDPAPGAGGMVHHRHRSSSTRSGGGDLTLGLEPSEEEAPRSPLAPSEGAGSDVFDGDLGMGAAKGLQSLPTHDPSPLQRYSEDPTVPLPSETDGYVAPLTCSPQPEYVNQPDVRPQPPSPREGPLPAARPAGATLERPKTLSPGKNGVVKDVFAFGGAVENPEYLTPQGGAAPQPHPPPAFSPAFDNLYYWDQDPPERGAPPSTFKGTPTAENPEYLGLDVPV

| IC50 [1] | IC50 [2] | IC50 (HER2) | AUC(0-inf) [3] | Cmax [3] | Tmax [3] | half-life [3] | Structure (SMILES) |
| --- | --- | --- | --- | --- | --- | --- | --- |
| 4.7 nM | 71.5 nM | 0.4 nM |  |  |  |  | C=CC(=O)N1CCC(Nc2cc3c(Nc4ccc(F)c(Cl)c4)ncnc3cc2OCCOC)CC1 [Example 17, N^6-(1-acryloylpiperidin-4-yl)-N^4-(3-chloro-4-fluorophenyl)-7-(2-methoxyethoxy)quinazoline-4,6-diamine] |
| 2.1 nM | 14 nM | 0.2 nM | 11000 ng·h/mL | 1970 ng/mL | 1 h | 2.39 h | C=CC(=O)N1CCC(Nc2cc3c(Nc4ccc(F)c(Cl)c4)ncnc3cc2OC)CC1 [Example 2, N^6-(1-acryloylpiperidin-4-yl)-N^4-(3-chloro-4-fluorophenyl)-7-methoxyquinazoline-4,6-diamine] |
| 4.2 nM | 21.8 nM | 0.5 nM | 1350 ng·h/mL | 588 ng/mL | 0.5 h | 1.3 h | C=CC(=O)N1CC(Nc2cc3c(Nc4ccc(F)c(Cl)c4)ncnc3cc2OC)C1 [Example 1, N^6-(1-acryloylazetidin-3-yl)-N^4-(3-chloro-4-fluorophenyl)-7-methoxyquinazoline-4,6-diamine] |
| 8.7 nM | 32.4 nM | 0.3 nM |  |  |  |  | C=CC(=O)N1CC(Nc2cc3c(Nc4ccc(F)c(Cl)c4)ncnc3cc2OCCOC)C1 [Example 16, N^6-(1-acryloylazetidin-3-yl)-N^4-(3-chloro-4-fluorophenyl)-7-(2-methoxyethoxy)quinazoline-4,6-diamine] |
| 1.6 nM | 25.6 nM | 0.4 nM |  |  |  |  | C=CC(=O)N1CCC(Nc2cc3c(Nc4ccc(F)c(Cl)c4)ncnc3cc2O[C@H]2CCOC2)CC1 [Example 4, (S)—N^6-(1-acryloylpiperidin-4-yl)-N^4-(3-chloro-4-fluorophenyl)-7-(tetrahydrofuran-3-yloxy)quinazoline-4,6-diamine] |

More lines, now with the values behind:

| Structure (SMILES) | IC50 [1] | IC50 [2] | IC50 (HER2) | AUC(0-inf) [3] | Cmax [3] | Tmax [3] | half-life [3] |
| --- | --- | --- | --- | --- | --- | --- | --- |
| C=CC(=O)N1CCC(Nc2cc3c(Nc4cccc(Br)c4)ncnc3cc2OC)CC1 [Example 15, N^6-(1-acryloylpiperidin-4-yl)-N^4-(3-bromophenyl)-7-methoxyquinazoline-4,6-diamine] | 4.2 nM | 56 nM | 0.2 nM |  |  |  |  |
| C=CC(=O)N1CC(Nc2cc3c(Nc4ccc(F)c(Cl)c4)ncnc3cc2O[C@H]2CCOC2)C1 [Example 3, (S)—N^6-(1-acryloylazetidin-3-yl)-N^4-(3-chloro-4-fluorophenyl)-7-(tetrahydrofuran-3-yloxy)quinazoline-4,6-diamine] | 5.1 nM | 31.4 nM | 0.3 nM |  |  |  |  |
| C=CC(=O)N1CC(Nc2cc3c(Nc4cccc(C(C)=O)c4)ncnc3cc2OC)C1 [Example 13, N^4-(3-acetylphenyl)-N^6-(1-acryloylazetidin-3-yl)-7-methoxyquinazoline-4,6-diamine] |  |  | 0.5 nM |  |  |  |  |
| C=CC(=O)N1CC(Nc2cc3c(Nc4cccc(Br)c4)ncnc3cc2OC)C1 [Example 14, N^6-(1-acryloylazetidin-3-yl)-N^4-(3-bromophenyl)-7-methoxyquinazoline-4,6-diamine] | 4.6 nM | 59.3 nM | 0.2 nM |  |  |  |  |
| C=CC(=O)N1CC(Sc2cc3c(Nc4ccc(F)c(Cl)c4)ncnc3cc2OC)C1 [Example 19, 6-(1-acryloylazetidin-3-yl)-thio-N-(3-chloro-4-fluorophenyl)-7-methoxyquinazoline-4-amine] | 97.1 nM | 274 nM |  |  |  |  |  |
| C=CC(=O)N1CCC(Nc2cc3c(Nc4ccc(OCc5ccccn5)c(Cl)c4)ncnc3cc2OC)CC1 [Example 8, 1-(4-(4-(3-chloro-4-(pyridin-2-ylmethoxy)phenylamino)-7-methoxyquinazoline-6-ylamino)piperidin-1-yl)prop-2-ene-1-one] | 62.1 nM | 244 nM | 1.2 nM |  |  |  |  |

— patent US9725439B2, “Quinazoline derivative and preparation method therefor” (CHIA TAI TIANQING PHARMACEUTICAL GROUP CO., LTD., priority 2013, dated 2017)
